Results as given in patent US20250136655A1, “INJECTION PEN FOR SUBCUTANEOUS ADMINISTRATION OF A PEPTIDE” (Zealand Pharma A/S, priority 2017, published 2025).
Where “and” joins values, the source holds several entries; their conditions need not be identical. Identical values can stand only once. Like-named read-outs stand apart in the source and are kept apart here. Ends that are not written are not given here.

What was measured:
human GLP-2 receptor = target: T1, human GLP-2 receptor (human, UniProt O95838 1-553); test: cell-based or functional assay
T1 sequence (looked up): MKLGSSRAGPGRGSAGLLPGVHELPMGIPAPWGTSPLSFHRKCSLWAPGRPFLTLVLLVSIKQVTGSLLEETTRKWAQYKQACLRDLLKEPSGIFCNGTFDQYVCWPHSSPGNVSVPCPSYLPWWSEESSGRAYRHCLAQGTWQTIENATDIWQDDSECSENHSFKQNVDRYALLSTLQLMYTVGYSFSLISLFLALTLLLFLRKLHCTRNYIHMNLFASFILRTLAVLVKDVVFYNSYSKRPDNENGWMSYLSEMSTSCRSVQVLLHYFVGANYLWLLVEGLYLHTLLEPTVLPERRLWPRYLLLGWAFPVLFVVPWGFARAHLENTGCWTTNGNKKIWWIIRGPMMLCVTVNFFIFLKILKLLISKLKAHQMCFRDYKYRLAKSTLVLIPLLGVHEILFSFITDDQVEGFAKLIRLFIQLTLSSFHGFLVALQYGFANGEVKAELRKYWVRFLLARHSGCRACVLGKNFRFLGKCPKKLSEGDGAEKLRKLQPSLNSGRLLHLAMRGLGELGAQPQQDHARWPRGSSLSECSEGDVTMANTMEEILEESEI

[1] = Phase 1 PK trial of glepaglutide in healthy subjects, half-life of metabolite ZP2469; format: in vivo, human; conditions: per subject; for half-life: human, plasma
Excerpt: A Phase 1, Open-Label, Partially Randomized, 3-Part, Parallel Group Trial to Evaluate the Pharmacokinetic Profile of glepaglutide (ZP1848) After a Single Intravenous Injection and After Multiple Subcutaneous Injections in Healthy Human Subjects A Phase 1 clinical trial to characterize the pharmacokinetic (PK) profiles of glepaglutide (ZP1848) and its primary active metabolites following once-weekly and once daily subcutaneous (SC) injections and after a single intravenous (IV) infusion in healthy subjects was conducted. This included evaluating the pharmacodynamic effects on plasma citrulline levels following SC dosing in healthy subjects. The trial confirmed the feasibility of dosage regimes in which GLP-2 analogues are administered to patients in weekly dosage regimes and compare weekly dosage regimes with daily dosing.
The trial design was a single-center, open-label, partially randomized, 3-part, parallel group trial to characterize the PK profile of glepaglutide administered by SC injection once daily for 7 days (Part 1), SC injection once weekly for 6 weeks (Part 2), and as a single IV infusion (Part 3) in healthy subjects.
Group A: 1 mg glepaglutide once daily, given as single SC injections on Days 1 to 7.
Group B: 5 mg glepaglutide once daily, given as single SC injections on Days 1 to 7.
Group C: 5 mg glepaglutide once weekly, given as single SC injections on Days 1, 8, 15, 22, 29, and 36.
Group D: 10 mg glepaglutide once weekly, given as single SC injections on Days 1, 8, 15, 22, 29, and 36.
Blood samples were collected for the analysis of plasma concentrations of glepaglutide and its primary active metabolites, ZP2469 (ZP18481-34) and ZP2711 (ZP18481-35); samples were assayed using validated analytical methods. The following PK parameter estimates were calculated using standard non-compartmental methods: terminal elimination half-life (t1/2), total body clearance of drug after IV administration (CL; IV dose, parent drug only), apparent total clearance (CL/F; SC doses, parent drug only), volume of distribution at steady state (Vss; IV dose, parent drug only), apparent volume of distribution at steady state (Vss/F; SC doses, parent drug only), volume of distribution (Vz; IV dose, parent drug only), apparent volume of distribution (Vz/F; SC doses, parent drug only), maximum observed plasma concentration (Cmax), area under the plasma concentration-time curve (AUC) over a dosing interval (AUCT), AUC from time zero to infinity (AUCinf), AUC from time zero to the time of the last measurable concentration (AUClast), and time of the maximum observed plasma concentration (tmax). Metabolite exposure (based on Cmax, AUCT, and AUCinf) were determined for each group as a ratio of the 2 primary active metabolites, ZP2469 (ZP18481-34) and ZP2711 (ZP18481-35), relative to the glepaglutide parent drug.
The PK parameters estimates for glepaglutide, ZP2469 (ZP18481-34), and ZP2711 (ZP 18481-35) were listed and summarized using standard descriptive statistics. The primary PK parameters are t1/2 for glepaglutide, ZP2469 (ZP18481-34), and ZP2711 (ZP18481-35); and CL (IV dose), CL/F (SC doses), Vss(IV dose), Vss/F (SC dose), Vz(IV dose), and Vz/F (SC doses) for glepaglutide. The half-life is calculated as LN(2)/ke where ÷ke is estimate from the slope of the terminal part of the LN(concentration) versus time curve, with repeats regressions of LN(concentration) values using the last three points with non-zero concentrations, then the last four points, last five points, etc. Points with a concentration value of zero are not included. Points prior to Cmax are not used. […] 2) ke must be calculated from at least three data points. 3) The estimated slope must be negative, so that its negative ke is positive. The results of the calculations carried out with preliminary data are shown in Table 4, while the results of the calculations with the complete final data set are shown in Table 5. […]

[2] = Phase 2 clinical trial PK profile of ZP1848 and metabolites in SBS patients; format: in vivo; conditions: human, plasma
Procedure: The study was designed as a randomized, cross-over and double-blinded with three different doses of ZP1848 (10 mg, 1 mg, 0.1 mg) in 16 SBS patients.
The 18 SBS patients (16 patients completed the study) were randomized evenly and in a double-blinded fashion to each of the six cross-over dose level combinations: 10 mg/1 mg, 10 mg/0.1 mg, 1 mg/10 mg, 1 mg/0.1 mg, 0.1 mg/10 mg, 0.1 mg/1 mg of ZP1848. The patients were injected once daily (QD) subcutaneously with the above doses of ZP1848.
Blood samples for PK analysis were collected on several study visits throughout the study period: the study comprised a 1st baseline balance study (4 days), a 1st treatment period (21 days) including a 1st treatment balance study (last 4 days of 1st treatment period), followed by a wash-out period (at least 4 weeks); and a 2nd baseline balance study (4 days), a 2nd treatment period (21 days) including a 2nd treatment balance study (last 4 days of 2nd treatment period) and a follow-up period (at least 4 weeks).
PK sampling was performed at visit 11 (1st treatment, balance study) and visit 17 (second day of 2nd baseline study-after a wash out period), and again at visit 25 (2nd treatment balance study) and at visit 29 (last day of follow-up period).
At day visit 11 and visit 25 a full PK profile in steady state was investigated. PK samples were taken prior to injection of ZP1848, and at the following time points (+/−10 minutes) after trial product administration: 1 h, 2 h, 4 h, 6 h, 8 h, 10 h, 12 h and 24 h. Each PK sample contained 2 mL of blood, resulting in a total of […] blood drawn for PK purposes. The plasma sample was immediately stored at −80° C. after sampling.
Plasma samples were analyzed after immunoaffinity extraction followed by liquid chromatography mass spectrometry (LC-MS/MS). […] Plasma terminal elimination half-life (T½) was determined as In (2)/ke where ke is the magnitude of the slope of the log linear regression of the log concentration versus time profile during the terminal phase.

Wistar rats = test: Intestinotrophic effects following 26-week chronic exposure in rats; format: in vivo; conditions: in words
Procedure: Wistar rats were dosed subcutaneously (SC) with vehicle, 1, 3 and 10 mg/kg ZP1848 on a daily basis for 26 weeks. Further sub-groups of control and high-dose animals were allowed a 6-week recovery period following completion of the dosing period. […] The length and the weight of the small and large intestines were measured at necropsy as indicators of intestinotrophic effects and the intestinal tract was evaluated histologically.

[3] = cited from earlier work
[4] = previous experiments; cited from earlier work
[5] = subcutaneous, Phase 2 study, SBS patients, read-out: terminal plasma half-life

## Teduglutide (peptide)
Human GLP-2 receptor
  EC50 Avg (nM), cAMP AlphaScreen in HEK293 cells expressing hGLP-2R: 0.03 nM

## H-HGEGTFSSELATILDALAARDFIAWLIATKITDK-OH [ZP2469]
[1]; final results, Group A, 1 mg once daily, after 7 doses
  Half-life of ZP2469 in the interval from 72 to 168 hours post dose: 75 h
[1]; final results, Group C, 5 mg once weekly, after 1 dose
  Half-life of ZP2469 in the interval from 72 to 168 hours post dose: 59 h and 75 h
[1]; final results, Group C, 5 mg once weekly, after 6 doses
  Half-life of ZP2469 in the interval from 72 to 168 hours post dose: 57 h
[1]; final results, Group D, 10 mg once weekly, after 1 dose
  Half-life of ZP2469 in the interval from 72 to 168 hours post dose: 54 h and 46 h and 35 h and 60 h and 26 h and 53 h and 43 h and 33 h and 45 h and 38 h
[1]; final results, Group D, 10 mg once weekly, after 6 doses
  Half-life of ZP2469 in the interval from 72 to 168 hours post dose: 59 h and 53 h and 42 h and 48 h
[1]; sc, 10 mg, preliminary results, Group D, 10 mg glepaglutide SC once weekly, after 1 dose, read-out: Half-life ZP2469 (converted)
  half-life: 56 h
[1]; subcutaneous, 1 mg, final results, Group A, 1 mg once daily, after 7 doses, read-out: Half-life of ZP2469 in the interval from 72 to 168 hours post dose (converted)
  half-life: 94 h
[1]; preliminary results, Group A, 1 mg glepaglutide SC once daily, after 7 doses
  Half-life ZP2469: 20 h
[1]; preliminary results, Group C, 5 mg glepaglutide SC once weekly, after 1 dose
  Half-life ZP2469: 17 h
[1]; preliminary results, Group D, 10 mg glepaglutide SC once weekly, after 1 dose
  Half-life ZP2469: 38 h and 34 h
[2]; [5]
  half-life: 120 to 408 h

## H-HGEGTFSSELATILDALAARDFIAWLIATKITDKKKKKK-NH2 [ZP1848] [listing 1 of 2 here]
Wistar rats; 1, 3 and 10 mg/kg SC daily for 26 weeks
  mucosal hyperplasia of the duodenum, jejunum and ileum: dose-related increase
Wistar rats; SC daily for 26 weeks
  length and weight of the large intestine: slightly increased

## Hy-His-Ala-Asp-Gly-Ser-Phe-Ser-Asp-Glu-Met-Asn-Thr-Ile-Leu-Asp-Asn-Leu-Ala-Ala-Arg-Asp-Phe-Ile-Asn-Trp-Leu-Ile-Gln-Thr-Lys-Ile-Thr-Asp-OH [GLP-2 [1-33]]
[3]; in humans
  half-life: around 7 minutes
[3]; in humans, listed as native GLP-2
  half-life: seven

## H-HGEGTFSSELATILDALAARDFIAWLIATKITDKKKKKK-NH2 [ZP1848] [listing 2 of 2 here]
[4]
  half-life: about 17 hours
[2]; [5]
  half-life: 120 to 408 h

## GLP-2 [3-33]: truncated GLP-2 [3-33] (DGSFSDEMNTILDNLAARDFINWLIQTKITD; Glucagon-like peptide 2; UniProt P01275 148-178, looked up, fragment)
[3]; in humans
  half-life: ~0.45 h

## CC[C@H](C)[C@H](NC(=O)[C@H](Cc1ccccc1)NC(=O)[C@H](CC(=O)O)NC(=O)[C@H](CCCNC(=N)N)NC(=O)[C@H](C)NC(=O)[C@H](C)NC(=O)[C@H](CC(C)C)NC(=O)[C@H](CC(N)=O)NC(=O)[C@H](CC(=O)O)NC(=O)[C@H](CC(C)C)NC(=O)[C@@H](NC(=O)[C@@H](NC(=O)[C@H](CC(N)=O)NC(=O)[C@H](CCSC)NC(=O)[C@H](CCC(=O)O)NC(=O)[C@H](CC(=O)O)NC(=O)[C@H](CO)NC(=O)[C@H](Cc1ccccc1)NC(=O)[C@H](CO)NC(=O)CNC(=O)[C@H](CC(=O)O)NC(=O)CNC(=O)[C@@H](N)Cc1c[nH]cn1)[C@@H](C)O)[C@@H](C)CC)C(=O)N[C@@H](CC(N)=O)C(=O)N[C@@H](Cc1c[nH]c2ccccc12)C(=O)N[C@@H](CC(C)C)C(=O)N[C@H](C(=O)N[C@@H](CCC(N)=O)C(=O)N[C@H](C(=O)N[C@@H](CCCCN)C(=O)N[C@H](C(=O)N[C@H](C(=O)N[C@@H](CC(=O)O)C(=O)O)[C@@H](C)O)[C@@H](C)CC)[C@@H](C)O)[C@@H](C)CC [Teduglutide]
[3]; in vivo
  half-life: about two

## H-HGEGTFSSELATILDALAARDFIAWLIATKITDKK-OH [ZP2711]
[2]; sc, plasma terminal elimination half-life, per subject, after SC once-daily ZP1848, read-out: Half-life (converted)
  half-life: 336 h

## HGEGTFSSELATILDALAARDFIAWLIATKITDKKK-OH [ZP2949]
Human GLP-2 receptor
  EC50_Avg (nM), cAMP AlphaScreen in HEK293 cells expressing hGLP-2R: 0.11 nM

## HGEGTFSSELATILDALAARDFIAWLIATKITDKK-OH [ZP2711]
Human GLP-2 receptor
  EC50_Avg (nM), cAMP AlphaScreen in HEK293 cells expressing hGLP-2R: 0.072 nM

## HGEGTFSSELATILDALAARDFIAWLIATKITDK-OH [ZP2469]
Human GLP-2 receptor
  EC50_Avg (nM), cAMP AlphaScreen in HEK293 cells expressing hGLP-2R: 0.052 nM

## HGEGSFSSELSTILDALAARDFIAWLIATKITDKKKKKK-NH2 [ZP1846]
Human GLP-2 receptor
  EC50_Avg (nM), cAMP AlphaScreen in HEK293 cells expressing hGLP-2R: 0.26 nM

## HGEGTFSSELATILDALAARDFIAWLIATKITDKKKKKK-NH2 [ZP1848]
Human GLP-2 receptor
  EC50_Avg (nM), cAMP AlphaScreen in HEK293 cells expressing hGLP-2R: 0.3 nM
